Entries after “also recorded” stand apart in the source; their conditions may differ. Like-named read-outs stand apart in the source and are kept apart here.

The nature of data set [1]: In vivo tissue uptake in rat (% injected dose per organ, n=5).
Data set [2] in a line: Acute/immediate toxicity following i.v. injection in BALB/c mice. As to conditions: mouse, in vivo, iv. As for the experimental part:
Acute toxicity studies were performed in BALB/c female mice with doses tested at 20, 50 and 200 mg/kg (i.v., n=5 mice per dose).

The subject of data set [3] is MCF-7 human breast cancer cells. Kind of data set: MCF-7 human breast cancer xenograft growth in nude mice. Format: in vivo, mouse. As to conditions: 50 μg daily s.c. The source says: The cultures were free of mycoplasma and pathogenic murine viruses (assayed by Microbiological Associates, Bethesda, Md.). Female athymic NCr-nu/nu mice were obtained from the NCI-Frederick Cancer Research Facility (Frederick, Md.). The mice were maintained in specific-pathogen-free conditions in a facility approved by the American Association for Accreditation of Laboratory Animal Care. […] A 60-day release pellet containing […] 17-β estradiol (Innovative Research of America, Toledo, Ohio) was implanted s.c. in each animal. After 20 days the 17β estradiol […] removed from one group, and these mice were not treated further.
For orientation: A xenograft is tissue or cells of one species grown in another, often human tumour cells in immunodeficient mice.

For data set [4], the system named is breast cancer. Kind of data set: Response of PET-imaged patients to tamoxifen treatment. Format: in vivo, human.
In data set [5] the test system is breast cancer. Conditions: unselected patients with breast cancer; cited from earlier work.
Data set [6] concerns the target T1, estrogen receptor (Sus scrofa, UniProt Q29040).
T1 sequence (Q29040 1-595): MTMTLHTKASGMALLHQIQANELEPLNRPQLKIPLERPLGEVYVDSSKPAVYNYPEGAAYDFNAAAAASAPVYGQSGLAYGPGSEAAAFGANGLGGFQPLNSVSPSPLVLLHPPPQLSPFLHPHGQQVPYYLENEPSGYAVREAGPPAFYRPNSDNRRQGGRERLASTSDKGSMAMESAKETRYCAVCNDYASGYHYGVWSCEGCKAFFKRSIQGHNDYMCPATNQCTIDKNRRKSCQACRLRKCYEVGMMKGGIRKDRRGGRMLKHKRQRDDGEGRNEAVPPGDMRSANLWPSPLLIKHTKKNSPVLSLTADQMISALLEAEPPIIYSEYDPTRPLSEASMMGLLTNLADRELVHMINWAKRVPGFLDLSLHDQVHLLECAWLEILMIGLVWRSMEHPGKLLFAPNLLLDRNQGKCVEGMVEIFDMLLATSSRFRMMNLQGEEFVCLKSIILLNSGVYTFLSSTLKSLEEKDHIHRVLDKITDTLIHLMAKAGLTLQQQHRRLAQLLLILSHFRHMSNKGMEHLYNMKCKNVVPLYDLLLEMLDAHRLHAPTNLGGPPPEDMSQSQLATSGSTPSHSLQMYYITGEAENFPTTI
Procedure: (§1) A previously reported procedure was modified by the inventors and used for this purpose.^10,11 TEA buffer was used by the Inventors for tissue preparation.
(§2) Briefly, uteri (90 gm) were obtained from immature domestic swine (15 kg) was homogenized in Tris buffer (10 mM, pH 7.4) (1 uterus/180 ml), which contained EDTA (1.5 mM) and sodium Azide (3 mM). The homogenate was centrifuged at 100,000 g for 1 hour at 4° C. Uteri cytosol (contains 2% of protein from corresponding uterus tissue) were then pretreated with dextran-coated charcoal as described.^10 Protein concentrations were determined according to the method of Lowry et al.^12
(§3) *The relative binding affinity (RBA) for the pig uteri estrogen receptor

Data set [7] has as its target T1, estrogen receptor. Kind of data set: biochemical.
Procedure: as §1, §2, §3

In the case of `CCN(CC)CCOc1ccc(/C(=C(/CCC[131I])c2ccccc2)c2ccccc2)cc1` [^131 I-IMTX (trans)], the Uterus/muscle ratio in data set [1] (first value (3 h)) was determined as 11.0; in data set [1] (second value (6 h)), 7.6; in data set [1] (third value (24 h)), 3.6.

`CCN(CC)CCOc1ccc(C(=C(CCCI)c2ccccc2)c2ccccc2)cc1` [iodotamoxifen] came in with an MTD in data set [2] of 50 mg/kg. Further, the “ER(+) MCF-7 tumor growth (in words)” value in data set [3] is given as “reduced ER(+) breast tumor growth; also recorded: growth of the MCF-7 tumors was greatly reduced”.

`CC/C(=C(\c1ccccc1)c1ccc(OCCN(C)C)cc1)c1ccccc1` [Compound I, Tamoxifen]: the “Response of TX treat.” value in data set [4] (patient 1) is given as “poor”; in data set [4] (patient 2), “poor”; in data set [4] (patient 3), “good”; in data set [4] (patient 4), “poor”; in data set [4] (patient 5), “good”; in data set [4] (patient 7), “poor”. For the same compound, the entries for the “Response of TX treat.” value in data set [4] (patient 9) and in data set [4] (patient 10) were “poor” and “good”, respectively. Moreover, in data set [4] (three patients with tumor uptake), the “Response to tamoxifen therapy (in words)” value was “positive response to tamoxifen therapy”. For the same compound, the “ER(+) MCF-7 tumor growth (in words)” value in data set [3] is on record as “reduced ER(+) breast tumor growth; also recorded: growth of the MCF-7 tumors was greatly reduced”. Moreover, the Positive therapy results in data set [5] is listed as 30%.

As a reminder, the IC50 is the concentration needed to halve the response being measured. Lower therefore signals higher potency. By Ki is commonly meant the dissociation constant of the complex between target and ligand, obtained from inhibition or displacement. Higher therefore signals lower affinity. `CCN(CC)CCOc1ccc(/C(=C(/CCCN)c2ccccc2)c2ccccc2)cc1` [TX-NH2 (trans), Amino Tamoxifen]: the “RBA (relative binding affinity)” value in data set [6] (tamoxifen = 100) was determined as 10. For the same compound, in data set [7], the 50% inhibitory concentration (IC50) stood at 300 µM and the Ki is 150 µM.

For the compound `CCN(CC)CCOc1ccc(/C(=C(/CCCN=[N+]=[N-])c2ccccc2)c2ccccc2)cc1` [TX-N3 (trans), Tamoxifen Azide], the “RBA (relative binding affinity)” value in data set [6] is on record as 80. In data set [7], the concentration for half-maximal inhibition (IC50) was determined as 38 µM and the Ki is 18.7 µM.
